Source: ChEMBL document CHEMBL5230154, “Chemical probe of AHL modulators on quorum sensing in Gram-Negative Bacteria and as antiproliferative agents: A review” (Eur J Med Chem, 2021)
One block for each compound: values may come before it.

Tests used:
[1] = Inhibition of quorum sensing system in Chromobacterium violaceum CV026 assessed as inhibition of violacein production incubated for 16 to 18 hrs by spectrophotometric assay
[2] = Inhibition of quorum sensing system in Pseudomonas aeruginosa PAO1 assessed as inhibition of pyocyanin production at 15 uM incubated for 12 hrs by spectrophotometric assay
[3] = Inhibition of quorum sensing system in Pseudomonas aeruginosa PAO1 assessed as inhibition of rhamnolipid production at 15 uM incubated for 12 hrs by spectrophotometric assay
[4] = Inhibition of quorum sensing system in Pseudomonas aeruginosa PAO1 assessed as decrease in lasI expression at 15 uM incubated for 12 hrs by real-time fluorescent quantitative PCR analysis
Pseudomonas aeruginosa [5] = assay: Inhibition of biofilm formation in Pseudomonas aeruginosa PAO1 incubated for 12 hrs by crystal violet staining based analysis; format: functional
Pseudomonas aeruginosa [6] = assay: Inhibition of quorum sensing system in Pseudomonas aeruginosa MH602 expressing PlasB::gfp assessed as inhibition of GFP fluorescence expression at 250 uM incubated for 15 hrs by fluorescence microplate reader analysis
[7] = biological target: T1, Transcriptional activator protein LasR (Pseudomonas aeruginosa (strain ATCC 15692 / PAO1 / 1C / PRS 101 / LMG12228), UniProt P25084); assay: Antagonist activity against LasR-mediated quorum sensing system in Pseudomonas aeruginosa PAO1 by spectrophotometric assay
T1 sequence (P25084 whole entry): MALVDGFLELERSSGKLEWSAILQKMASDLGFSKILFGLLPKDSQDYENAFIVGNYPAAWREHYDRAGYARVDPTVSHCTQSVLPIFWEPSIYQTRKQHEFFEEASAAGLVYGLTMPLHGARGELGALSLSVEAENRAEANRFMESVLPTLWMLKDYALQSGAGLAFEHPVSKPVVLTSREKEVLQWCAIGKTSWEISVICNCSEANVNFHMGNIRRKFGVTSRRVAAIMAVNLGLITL

Pseudomonas aeruginosa [8] = assay: Inhibition of quorum sensing system in Pseudomonas aeruginosa MH602 PlasB-gfp(ASV) assessed as inhibition of green fluorescent protein production at 62.5 to 250 uM for 20 hrs by fluorescence assay; conditions: dose 62.5-250 µM
[9] = Agonist activity against RhlR in Escherichia coli expressing JLD271/pJN105R2/pSC11-rhlI using CPRG as substrate by spectrophotometric assay
Pseudomonas aeruginosa [10] = assay: Inhibition of quorum sensing system in Pseudomonas aeruginosa MH602 PlasB-gfp(ASV) assessed as inhibition of green fluorescent protein production at 62.5 uM for 20 hrs by fluorescence assay
Pseudomonas aeruginosa [11] = assay: Inhibition of quorum sensing system in Pseudomonas aeruginosa MH602 PlasB-gfp(ASV) assessed as inhibition of green fluorescent protein production at 125 uM for 20 hrs by fluorescence assay
Pseudomonas aeruginosa [12] = assay: Inhibition of quorum sensing system in Pseudomonas aeruginosa MH602 PlasB-gfp(ASV) assessed as inhibition of green fluorescent protein production at 250 uM for 20 hrs by fluorescence assay
[13] = Antagonist activity against quorum sensing system in Vibrio harveyi BB120 assessed as inhibition of […] incubated for 5 hrs by bioluminescence assay
[14] = Inhibition of Escherichia coli DH5alpha LasR co-expressing LasR beta-galactosidase reporter assessed as inhibition of beta-galactosidase activity incubated for 2 hrs by spectrophotometric assay
Escherichia coli = assay: Inhibition of Escherichia coli DH5alpha LasR co-expressing LasR beta-galactosidase reporter assessed as inhibition of beta-galactosidase activity at 100 uM incubated for 2 hrs by spectrophotometric assay
Pseudomonas aeruginosa [15] = assay: Inhibition of Pseudomonas aeruginosa MH602 harboring PlasB::gfp(ASV) reporter assessed as decrease in GFP expression at 250 uM incubated for 22 hrs by fluorescence microplate reader analysis

Compound: O=C(Nc1ccc(S(=O)(=O)N[C@H]2CCOC2=O)cc1)c1ccc(F)cc1
IC50 [1]: 14.7 µM

Compound: O=C(CSc1nc2ccccc2s1)N[C@H]1CCOC1=O
inhibition [2]: 14.2%
inhibition [3]: 20.5%
inhibition [4]: 50.5%
inhibition (INH) (Pseudomonas aeruginosa [5]): 28.6%

Compound: CCCCCC(=O)Nc1ccc(S(=O)(=O)N[C@H]2CCOC2=O)cc1
IC50 [1]: 29 µM

Compound: O=C(Nc1ccc(S(=O)(=O)N[C@H]2CCOC2=O)cc1)c1ccccc1
IC50 [1]: 17.2 µM

Compound: O=C(CNc1ccc(C(=O)/C=C/c2ccccc2Cl)cc1)N[C@H]1CCOC1=O
IC50 [7]: 67.8 µM

Compound: O=C(CNc1ccc(C(=O)/C=C/c2ccc(F)cc2)cc1)N[C@H]1CCOC1=O
IC50 [7]: 46.8 µM

Compound: O=C(CCC1CC1)N[C@H]1CCOC1=O
EC50 [9]: 2.76 µM

Compound: CCCc1cn(CC(=O)Nc2nc3ccccc3[nH]2)nn1
inhibition (Pseudomonas aeruginosa [10]): 25%
inhibition (Pseudomonas aeruginosa [11]): 34%
inhibition (Pseudomonas aeruginosa [12]): 42%

Compound: CCOC(=O)CC(=O)c1ccc(OC)cc1
IC50 [13]: 36 µM

Compound: CCCCCC(=O)N[C@H]1CCOC1=O
EC50 [9]: 10.8 µM

Compound: COc1ccc(-c2cn(CC(=O)Nc3nc4ccccc4[nH]3)nn2)cc1
inhibition (Pseudomonas aeruginosa [11]): 5.16%
inhibition (Pseudomonas aeruginosa [12]): 20%

Compound: CCOC(=O)CC(=O)c1ccc(F)cc1
IC50 [13]: 23 µM

Compound: O=C(Nc1ccc(S(=O)(=O)N[C@H]2CCOC2=O)cc1)c1cccc(Cl)c1
IC50 [1]: 8.56 µM

Compound: CCOC(=O)CC(=O)c1ccc(C)cc1
IC50 [13]: 96 µM

Compound: O=C(Cn1cc(C2CCCCC2)nn1)N[C@H]1CCOC1=O
IC50 [14]: 12.4 µM
inhibition (Escherichia coli): 72%

Compound: CCCCc1cn(CC(=O)N[C@H]2CCOC2=O)nn1
IC50 [14]: 17.6 µM
inhibition (Escherichia coli): 75%

Compound: O=C(Cn1cc(CC2CCCCC2)nn1)N[C@H]1CCOC1=O
inhibition (Escherichia coli): 14%

Compound: O=C(Nc1ccc(S(=O)(=O)N[C@H]2CCOC2=O)cc1)c1cccc(F)c1
IC50 [1]: 7.79 µM

Compound: CCC(C)CC(=O)N[C@H]1CCOC1=O (stereo not given in full)
EC50 [9]: 7.77 µM

Compound: CCOC(=O)CC(=O)c1cccc2ccccc12
IC50 [13]: 76 µM

Compound: CCCCN1CC(Cl)=C(Cl)C1=O
inhibition (Pseudomonas aeruginosa [6]): 71.4%

Compound: O=C(CNc1ccc(C(=O)/C=C/c2ccc(Cl)cc2)cc1)N[C@H]1CCOC1=O
IC50 [7]: 46.8 µM

Compound: CCOC(=O)CC(=O)c1ccc([N+](=O)[O-])cc1
IC50 [13]: 53 µM

Compound: CCCCNC(=O)c1ccc(N2CC(Cl)=C(Cl)C2=O)cc1
inhibition (Pseudomonas aeruginosa [6]): 30%

Compound: Nc1cccc(-n2cc(CCC(=O)N[C@H]3CCOC3=O)nn2)c1
IC50 [14]: 4.03 µM

Compound: O=C(Cn1cc(-c2ccc(C(F)(F)F)cc2)nn1)Nc1nc2ccccc2[nH]1
inhibition (Pseudomonas aeruginosa [8]): 57.5%

Compound: O=C(Cn1cc(-c2ccc(Br)cc2)nn1)Nc1nc2ccccc2[nH]1
inhibition (Pseudomonas aeruginosa [8]): 45.7%

Compound: CCc1cn(CC(=O)Nc2nc3ccccc3[nH]2)nn1
inhibition (Pseudomonas aeruginosa [10]): 25%
inhibition (Pseudomonas aeruginosa [11]): 34%
inhibition (Pseudomonas aeruginosa [12]): 42%

Compound: O=C(Nc1ccc(S(=O)(=O)N[C@H]2CCOC2=O)cc1)c1ccccc1F
IC50 [1]: 1.64 µM

Compound: Cc1ccc2c(c1)C(=O)C(=O)N2C(=O)CCl
inhibition (Pseudomonas aeruginosa [15]): 57.4%

Compound: O=C(CNc1ccc(C(=O)/C=C/c2ccc(Br)cc2F)cc1)N[C@H]1CCOC1=O
IC50 [7]: 26.5 µM

Compound: Cc1ccc2c(c1)C(=O)C(=O)NCc1cnnn1CC(=O)Nc1ccc(C)cc1C(=O)C(=O)NCc1cnnn1CC(=O)N2
inhibition (Pseudomonas aeruginosa [15]): 58.6%

Compound: O=C(CNc1ccc(C(=O)/C=C/c2ccc(Br)cc2)cc1)N[C@H]1CCOC1=O
IC50 [7]: 46.8 µM

Compound: O=C(Cn1cc(-c2ccccc2)nn1)N[C@H]1CCOC1=O
IC50 [14]: 15.9 µM
inhibition (Escherichia coli): 89.6%

Compound: O=C(CNc1ccc(C(=O)/C=C/c2ccc(Cl)c(Cl)c2)cc1)N[C@H]1CCOC1=O
IC50 [7]: 46.8 µM

Compound: CCOC(=O)CC(=O)c1cccc(OC)c1
IC50 [13]: 41 µM

Compound: O=C(Cn1cc(-c2ccc(O)cc2)nn1)Nc1nc2ccccc2[nH]1
inhibition (Pseudomonas aeruginosa [8]): 34%

Compound: CCCCCc1cn(CC(=O)Nc2nc3ccccc3[nH]2)nn1
inhibition (Pseudomonas aeruginosa [10]): 25%
inhibition (Pseudomonas aeruginosa [11]): 34%
inhibition (Pseudomonas aeruginosa [12]): 42%

Compound: O=C(Nc1ccc(S(=O)(=O)N[C@H]2CCOC2=O)cc1)c1ccc(Cl)cc1
IC50 [1]: 15.9 µM

Compound: O=C(Cn1cc(C2CC2)nn1)N[C@H]1CCOC1=O
inhibition (Escherichia coli): 52%

Compound: CCOC(=O)CC(=O)c1cccc(C)c1
IC50 [13]: 56 µM

Compound: C/C=C/CCC(=O)N[C@H]1CCOC1=O
EC50 [9]: 6.93 µM

Compound: O=C1Cn2nncc2CNC(=O)C(=O)c2cc(F)ccc2NC(=O)Cn2nncc2CNC(=O)C(=O)c2cc(F)ccc2N1
inhibition (Pseudomonas aeruginosa [15]): 46%

Compound: O=C(N[C@H]1CCOC1=O)c1ccc(-n2cc(CSc3ccccc3)nn2)cc1
IC50 [14]: 2.64 µM
inhibition (Escherichia coli): 62%

Compound: COc1cccc(/C=C/C(=O)c2ccc(NCC(=O)N[C@H]3CCOC3=O)cc2)c1
IC50 [7]: 56.5 µM

Compound: C=CCN1CC(Cl)=C(Cl)C1=O
inhibition (Pseudomonas aeruginosa [6]): 76.4%

Compound: O=C(Cn1cc(-c2ccc([N+](=O)[O-])cc2)nn1)Nc1nc2ccccc2[nH]1
inhibition (Pseudomonas aeruginosa [8]): 63.7%

Compound: CC(C)CCC(=O)N[C@H]1CCOC1=O
EC50 [9]: 4.89 µM

Continued, in another order:

inhibition (Pseudomonas aeruginosa [6]): 30%
Compound: O=C(NCc1ccccc1)c1ccc(N2CC(Cl)=C(Cl)C2=O)cc1

inhibition (Pseudomonas aeruginosa [8]): 28.2%
Compound: O=C(Cn1cc(-c2cccc([N+](=O)[O-])c2)nn1)Nc1nc2ccccc2[nH]1

IC50 [13]: 39 µM
Compound: CCOC(=O)CC(=O)c1ccc(I)cc1

IC50 [7]: 37.6 µM
Compound: O=C(CNc1ccc(C(=O)/C=C/c2ccccc2Br)cc1)N[C@H]1CCOC1=O

inhibition (Pseudomonas aeruginosa [8]): 32%
Compound: Cc1ccc(-c2cn(CC(=O)Nc3nc4ccccc4[nH]3)nn2)cc1

IC50 [13]: 81 µM
Compound: CCOC(=O)CC(=O)c1ccc(Br)cc1

IC50 [14]: 10.9 µM
inhibition (Escherichia coli): 72%
Compound: Cc1ccc(-n2cc(CCC(=O)N[C@H]3CCOC3=O)nn2)cc1

inhibition (Pseudomonas aeruginosa [6]): 68%
Compound: CCCCCCN1CC(Cl)=C(Cl)C1=O

inhibition (Pseudomonas aeruginosa [8]): 49%
Compound: O=C(Cn1cc(-c2ccc(F)cc2)nn1)Nc1nc2ccccc2[nH]1

IC50 [7]: 62.5 µM
Compound: O=C(CNc1ccc(C(=O)/C=C/c2ccccc2)cc1)N[C@H]1CCOC1=O

IC50 [13]: 53 µM
Compound: CCOC(=O)CC(=O)c1ccc(Cl)cc1

IC50 [14]: 3.2 µM
inhibition (Escherichia coli): 55%
Compound: CCCCCc1cn(CC(=O)N[C@H]2CCOC2=O)nn1

inhibition (Pseudomonas aeruginosa [6]): 30%
Compound: CCCCCCNC(=O)c1ccc(N2CC(Cl)=C(Cl)C2=O)cc1

IC50 [7]: 46.8 µM
Compound: O=C(CNc1ccc(C(=O)/C=C/c2cc(Cl)cc(Cl)c2)cc1)N[C@H]1CCOC1=O

inhibition (Pseudomonas aeruginosa [10]): 25%
inhibition (Pseudomonas aeruginosa [11]): 34%
inhibition (Pseudomonas aeruginosa [12]): 42%
Compound: CCCCCCCc1cn(CC(=O)Nc2nc3ccccc3[nH]2)nn1

IC50 [13]: 76 µM
Compound: CCOC(=O)CC(=O)c1ccccc1

IC50 [1]: 49.5 µM
Compound: CCCCC(=O)Nc1ccc(S(=O)(=O)N[C@H]2CCOC2=O)cc1

IC50 [14]: 16.5 µM
inhibition (Escherichia coli): 75%
Compound: COc1ccc(-n2cc(CCC(=O)N[C@H]3CCOC3=O)nn2)cc1

IC50 [14]: 16.3 µM
inhibition (Escherichia coli): 70%
Compound: O=C(Cn1cc(C2CCCC2)nn1)N[C@H]1CCOC1=O

IC50 [14]: 13.7 µM
inhibition (Escherichia coli): 71%
Compound: O=C(Cn1cc(-c2cc(F)cc(F)c2)nn1)N[C@H]1CCOC1=O

inhibition [2]: 15.1%
inhibition [3]: 22.2%
inhibition [4]: 32.9%
Compound: O=C(CCSc1nc2ccccc2s1)N[C@H]1CCOC1=O
inhibition (INH) (Pseudomonas aeruginosa [5]): 38%

inhibition (Pseudomonas aeruginosa [10]): 52.9%
inhibition (Pseudomonas aeruginosa [11]): 60.5%
inhibition (Pseudomonas aeruginosa [12]): 65%
Compound: O=C(Cn1cc(-c2ccc(Cl)cc2)nn1)Nc1nc2ccccc2[nH]1

IC50 [1]: 4.91 µM
Compound: O=C(Nc1ccc(S(=O)(=O)N[C@H]2CCOC2=O)cc1)c1ccccc1C(F)(F)F

IC50 [13]: 71 µM
Compound: CCOC(=O)CC(=O)c1cccc([N+](=O)[O-])c1

IC50 [1]: 1.66 µM
Compound: O=C(Nc1ccc(S(=O)(=O)N[C@H]2CCOC2=O)cc1)c1ccccc1Cl

inhibition (Pseudomonas aeruginosa [8]): 36.1%
Compound: Cc1cc2nc(NC(=O)Cn3cc(-c4ccc(C(F)(F)F)cc4)nn3)[nH]c2cc1C
